According to BindingDB's records for doi:10.1021/jm051146h (Conforma Therapeutics, 2006):
pEC50: −log10 of the molar value.

The compounds below were run against Heat shock protein HSP 90-beta (Homo sapiens, UniProt P08238) (assay: Her-2 Degradation Assay). Conditions: not given.
Method: A fluorescence histogram was generated, and the mean fluorescence intensity (MFI) of each sample was determined using Cellquest software.

Sequence of Heat shock protein HSP 90-beta (P08238 whole entry): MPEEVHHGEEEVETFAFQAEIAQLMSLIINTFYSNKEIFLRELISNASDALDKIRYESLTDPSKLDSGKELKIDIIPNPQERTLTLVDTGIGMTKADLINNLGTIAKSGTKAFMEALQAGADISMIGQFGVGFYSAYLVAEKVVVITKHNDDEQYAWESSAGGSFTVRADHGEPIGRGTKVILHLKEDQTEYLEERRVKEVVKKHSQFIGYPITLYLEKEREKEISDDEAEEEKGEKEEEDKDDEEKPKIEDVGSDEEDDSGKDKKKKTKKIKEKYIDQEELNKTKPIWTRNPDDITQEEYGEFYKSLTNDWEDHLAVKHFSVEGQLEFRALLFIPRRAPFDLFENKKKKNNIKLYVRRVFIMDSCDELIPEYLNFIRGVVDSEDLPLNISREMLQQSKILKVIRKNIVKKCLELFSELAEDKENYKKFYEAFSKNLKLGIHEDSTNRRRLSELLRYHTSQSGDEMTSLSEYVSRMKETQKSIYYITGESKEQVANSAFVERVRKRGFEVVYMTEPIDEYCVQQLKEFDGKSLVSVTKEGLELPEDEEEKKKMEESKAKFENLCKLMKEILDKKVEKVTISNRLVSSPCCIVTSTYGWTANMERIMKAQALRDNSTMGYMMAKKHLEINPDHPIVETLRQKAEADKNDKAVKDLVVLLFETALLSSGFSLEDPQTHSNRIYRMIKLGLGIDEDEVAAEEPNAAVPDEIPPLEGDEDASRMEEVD

First: CC(=O)OCCCn1c(Sc2nc3cncc(Cl)c3s2)nc2c(N)ncnc21 [3-[6-amino-8-({7-chloropyrido[3,4-d][1,3]thiazol-2-yl}sulfanyl)-9H-purin-9-yl]propyl acetate]
Second: CCCCn1c(Sc2nc3cncc(Cl)c3s2)nc2c(N)ncnc21 [9-butyl-8-({7-chloropyrido[3,4-d][1,3]thiazol-2-yl}sulfanyl)-9H-purin-6-amine]
The pEC50 of the first is 0.22 log units higher: 6.77 for the first, 6.55 for the second.

`CC(C)(C)NCCCn1c(Sc2nc3cccc(Cl)c3s2)nc2c(N)ncnc21` [9-[3-(tert-butylamino)propyl]-8-[(7-chloro-1,3-benzothiazol-2-yl)sulfanyl]-9H-purin-6-amine] and `CC(C)(C)NCCn1c(Sc2nc3cccc(Cl)c3s2)nc2c(N)ncnc21` [9-[2-(tert-butylamino)ethyl]-8-[(7-chloro-1,3-benzothiazol-2-yl)sulfanyl]-9H-purin-6-amine] are within 0.2 log units of each other in pEC50: 6.82 for the first, 6.85 for the second.

Going from `CC(C)NCCCn1c(Sc2nc3cccc(Cl)c3s2)nc2c(N)ncnc21` [8-[(7-chloro-1,3-benzothiazol-2-yl)sulfanyl]-9-[3-(propan-2-ylamino)propyl]-9H-purin-6-amine] to `CC(C)(C)CNCCn1c(Sc2nc3cccc(Cl)c3s2)nc2c(N)ncnc21`, the pEC50 rises from 6.77 to 7.46 (0.69 log units). The second is the more potent here.

Compared with `CCCCn1c(Sc2nc3cncc(Br)c3s2)nc2c(N)ncnc21` [8-({7-bromopyrido[3,4-d][1,3]thiazol-2-yl}sulfanyl)-9-butyl-9H-purin-6-amine], `Nc1ncnc2c1nc(Sc1nc3cccc(Cl)c3s1)n2CCNC1CC1` [8-[(7-chloro-1,3-benzothiazol-2-yl)sulfanyl]-9-[2-(cyclopropylamino)ethyl]-9H-purin-6-amine] is 0.56 log units higher in pEC50: 6.40 for the first, 6.96 for the second. The second is the more potent here.

Same assay, conditions: pH 7.2; 37 °C

`CC(=O)OCCCn1c(Sc2nc3cccc(Cl)c3s2)nc2c(N)ncnc21` [3-{6-amino-8-[(7-chloro-1,3-benzothiazol-2-yl)sulfanyl]-9H-purin-9-yl}propyl acetate] and `CC(=O)OCCCCn1c(Sc2nc3cccc(Cl)c3s2)nc2c(N)ncnc21` [4-{6-amino-8-[(7-chloro-1,3-benzothiazol-2-yl)sulfanyl]-9H-purin-9-yl}butyl acetate] are within 0.2 log units of each other in pEC50: 7.05 for the first, 6.89 for the second.

Compared with `CCCCCn1c(Sc2nc3cccc(Cl)c3s2)nc2c(N)ncnc21` [8-[(7-chloro-1,3-benzothiazol-2-yl)sulfanyl]-9-pentyl-9H-purin-6-amine], `CCCCn1c(Sc2nc3cccc(Cl)c3s2)nc2c(N)ncnc21` is 0.59 log units higher in pEC50: 6.15 for the first, 6.74 for the second. The second is the more potent here.

`Nc1ncnc2c1nc(Sc1nc3cccc(Cl)c3s1)n2CCCO` [3-{6-amino-8-[(7-chloro-1,3-benzothiazol-2-yl)sulfanyl]-9H-purin-9-yl}propan-1-ol] and `Nc1ncnc2c1nc(Sc1nc3cccc(Cl)c3s1)n2CCCCO` [4-{6-amino-8-[(7-chloro-1,3-benzothiazol-2-yl)sulfanyl]-9H-purin-9-yl}butan-1-ol] are the same in pEC50: 6.82 for the first, 6.82 for the second.

`Nc1ncnc2c1nc(Sc1nc3cccc(Cl)c3s1)n2CCN1CCOCC1` [8-[(7-chloro-1,3-benzothiazol-2-yl)sulfanyl]-9-[2-(morpholin-4-yl)ethyl]-9H-purin-6-amine] and `Nc1ncnc2c1nc(Sc1nc3cccc(Cl)c3s1)n2CCO` [2-{6-amino-8-[(7-chloro-1,3-benzothiazol-2-yl)sulfanyl]-9H-purin-9-yl}ethan-1-ol] are within 0.2 log units of each other in pEC50: 6.60 for the first, 6.52 for the second.

Going from `CCCCn1c(Sc2nc3c(Cl)cccc3s2)nc2c(N)ncnc21` [9-butyl-8-[(4-chloro-1,3-benzothiazol-2-yl)sulfanyl]-9H-purin-6-amine] to `CCCCn1c(Sc2nc3ccc(Cl)cc3s2)nc2c(N)ncnc21` [9-butyl-8-[(6-chloro-1,3-benzothiazol-2-yl)sulfanyl]-9H-purin-6-amine], the pEC50 rises from 4.82 to 5.15 (0.33 log units). The second is the more potent here.

`CCCCn1c(Sc2nc3cccc(C)c3s2)nc2c(N)ncnc21` [9-butyl-8-[(7-methyl-1,3-benzothiazol-2-yl)sulfanyl]-9H-purin-6-amine] and `CCCCn1c(Sc2nc3cccc(F)c3s2)nc2c(N)ncnc21` [9-butyl-8-[(7-fluoro-1,3-benzothiazol-2-yl)sulfanyl]-9H-purin-6-amine] are within 0.2 log units of each other in pEC50: 6.52 for the first, 6.70 for the second.

Going from `CCCCn1c(Sc2nc3cccc(OC)c3s2)nc2c(N)ncnc21` [9-butyl-8-[(7-methoxy-1,3-benzothiazol-2-yl)sulfanyl]-9H-purin-6-amine] to `CCCCn1c(Sc2nc3cccc(OCC)c3s2)nc2c(N)ncnc21` [9-butyl-8-[(7-ethoxy-1,3-benzothiazol-2-yl)sulfanyl]-9H-purin-6-amine], the pEC50 falls from 6.72 to 4.00 (2.72 log units). The first is the more potent here.

Compared with `CC(=O)OCCn1c(Sc2nc3cccc(Cl)c3s2)nc2c(N)ncnc21` [2-{6-amino-8-[(7-chloro-1,3-benzothiazol-2-yl)sulfanyl]-9H-purin-9-yl}ethyl acetate], `CCCn1c(Sc2nc3cccc(Cl)c3s2)nc2c(N)ncnc21` [8-[(7-chloro-1,3-benzothiazol-2-yl)sulfanyl]-9-propyl-9H-purin-6-amine] is 0.22 log units lower in pEC50: 6.82 for the first, 6.60 for the second.

Compared with `CCCCn1c(Sc2nc3ccccc3s2)nc2c(N)ncnc21` [8-(1,3-benzothiazol-2-ylsulfanyl)-9-butyl-9H-purin-6-amine], `CCCCn1c(Sc2nc3cccc(Br)c3s2)nc2c(N)ncnc21` [8-[(7-bromo-1,3-benzothiazol-2-yl)sulfanyl]-9-butyl-9H-purin-6-amine] is 1.18 log units higher in pEC50: 5.30 for the first, 6.48 for the second. The second is the more potent here.

Going from `CCn1c(Sc2nc3cccc(Cl)c3s2)nc2c(N)ncnc21` [8-[(7-chloro-1,3-benzothiazol-2-yl)sulfanyl]-9-ethyl-9H-purin-6-amine] to `N#CCCCCn1c(Sc2nc3cccc(Cl)c3s2)nc2c(N)ncnc21` [5-{6-amino-8-[(7-chloro-1,3-benzothiazol-2-yl)sulfanyl]-9H-purin-9-yl}pentanenitrile], the pEC50 rises from 6.70 to 6.96 (0.26 log units).

With `CCCCn1c(Sc2nc3ccc(Cl)c(Cl)c3s2)nc2c(N)ncnc21` [9-butyl-8-[(6,7-dichloro-1,3-benzothiazol-2-yl)sulfanyl]-9H-purin-6-amine] the pEC50 was 4.60.
